Test results as given in ChEMBL document CHEMBL1201862, “PubChem BioAssay data set” (2004).
Active and inactive are the calls of the source.

Experiments:
[1] = NIH-3T3 fibroblast cytotoxicity, dose response, cytotoxicity control, cell-based, fluorescence, Alamar Blue, secondary assay (AID 2327); assay type: functional;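 note: NIH-3T3 mouse fibroblasts cultured with fluconazole at 8 µg/mL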
[2] = C. albicans growth with fluconazole, confirmation, fluorescence, retest (AID 2467); assay type: functional, cell-based
[3] = tested on: INS1; assay: beta cell apoptosis inhibitors, cytokine rescue, dose response, luminescence, retest (AID 449756); assay type: functional, cell-based; conditions: Rattus norvegicus;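 note: cell death triggered by IL-1 beta plus TNF-alpha plus IFN-gamma mixture; protective hits raise ATP signal compared with cytokine alone wells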
[4] = cells; assay type: functional
[5] = HEp-2 cell cytotoxicity, dose response, cytotoxicity control for RSV inhibitor project, HTS (AID 2410); assay type: functional; conditions: human respiratory syncytial virus
[6] = target: T1, Carboxy-terminal domain RNA polymerase II polypeptide A small phosphatase 1 (Homo sapiens, UniProt Q9GZU7); assay: inhibitors of CTDSP1, concentration-response testing, biochemical assay, absorbance-based, actives from ultra-high-throughput screening (AID 540297); assay type: functional
T1 sequence (Q9GZU7 whole entry): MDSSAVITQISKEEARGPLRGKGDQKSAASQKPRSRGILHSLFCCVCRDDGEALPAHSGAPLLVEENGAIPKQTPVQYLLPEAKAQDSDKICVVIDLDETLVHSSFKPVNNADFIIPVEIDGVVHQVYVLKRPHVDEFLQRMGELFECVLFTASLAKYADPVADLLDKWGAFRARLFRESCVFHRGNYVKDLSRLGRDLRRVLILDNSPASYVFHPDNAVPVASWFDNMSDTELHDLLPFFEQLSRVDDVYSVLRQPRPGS

[7] = target: Cytochrome P450 2C19 (Homo sapiens, UniProt P33261); assay: Cytochrome panel assay with activity outcomes. Panel member name: p450-cyp2c19 Compounds with AC50 equal or less than 10 uM are considered active; assay type: functional; conditions: read-out: AC50
Chain of Cytochrome P450 2C19 (P33261 whole entry): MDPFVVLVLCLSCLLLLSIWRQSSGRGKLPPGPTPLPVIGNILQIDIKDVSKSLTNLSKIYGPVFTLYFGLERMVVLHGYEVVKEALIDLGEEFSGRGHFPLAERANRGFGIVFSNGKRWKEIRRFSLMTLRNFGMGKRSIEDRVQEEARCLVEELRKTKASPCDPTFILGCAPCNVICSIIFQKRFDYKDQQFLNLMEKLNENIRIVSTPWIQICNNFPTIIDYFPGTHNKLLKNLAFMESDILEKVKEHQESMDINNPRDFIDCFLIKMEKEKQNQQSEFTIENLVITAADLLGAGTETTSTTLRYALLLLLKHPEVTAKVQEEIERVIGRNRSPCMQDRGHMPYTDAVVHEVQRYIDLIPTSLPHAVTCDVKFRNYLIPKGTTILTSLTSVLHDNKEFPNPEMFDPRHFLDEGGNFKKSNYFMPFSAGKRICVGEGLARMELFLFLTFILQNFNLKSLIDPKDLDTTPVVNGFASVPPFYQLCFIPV

[8] = target: Cytochrome P450 2D6 (Homo sapiens, UniProt P10635);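 note: CYP2D6 member of a cytochrome P450 panel assay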
Chain of Cytochrome P450 2D6 (P10635 whole entry): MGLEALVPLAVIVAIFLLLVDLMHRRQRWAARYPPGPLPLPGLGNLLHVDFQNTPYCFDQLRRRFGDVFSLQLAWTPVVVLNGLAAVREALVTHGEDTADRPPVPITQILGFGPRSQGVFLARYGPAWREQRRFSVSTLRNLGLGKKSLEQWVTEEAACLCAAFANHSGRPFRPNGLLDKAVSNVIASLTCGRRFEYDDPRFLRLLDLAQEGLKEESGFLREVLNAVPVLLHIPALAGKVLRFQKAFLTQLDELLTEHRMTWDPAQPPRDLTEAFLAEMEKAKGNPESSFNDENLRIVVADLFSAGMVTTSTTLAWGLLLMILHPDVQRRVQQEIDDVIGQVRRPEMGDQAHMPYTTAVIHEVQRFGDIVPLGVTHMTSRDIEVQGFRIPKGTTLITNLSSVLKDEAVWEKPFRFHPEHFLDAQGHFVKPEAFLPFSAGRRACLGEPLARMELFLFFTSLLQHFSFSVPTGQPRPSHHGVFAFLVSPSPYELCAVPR

[9] = target: Cytochrome P450 3A4 (Homo sapiens, UniProt P08684);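 note: CYP3A4 tested as one member of a cytochrome P450 panel screen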
Chain of Cytochrome P450 3A4 (P08684 whole entry): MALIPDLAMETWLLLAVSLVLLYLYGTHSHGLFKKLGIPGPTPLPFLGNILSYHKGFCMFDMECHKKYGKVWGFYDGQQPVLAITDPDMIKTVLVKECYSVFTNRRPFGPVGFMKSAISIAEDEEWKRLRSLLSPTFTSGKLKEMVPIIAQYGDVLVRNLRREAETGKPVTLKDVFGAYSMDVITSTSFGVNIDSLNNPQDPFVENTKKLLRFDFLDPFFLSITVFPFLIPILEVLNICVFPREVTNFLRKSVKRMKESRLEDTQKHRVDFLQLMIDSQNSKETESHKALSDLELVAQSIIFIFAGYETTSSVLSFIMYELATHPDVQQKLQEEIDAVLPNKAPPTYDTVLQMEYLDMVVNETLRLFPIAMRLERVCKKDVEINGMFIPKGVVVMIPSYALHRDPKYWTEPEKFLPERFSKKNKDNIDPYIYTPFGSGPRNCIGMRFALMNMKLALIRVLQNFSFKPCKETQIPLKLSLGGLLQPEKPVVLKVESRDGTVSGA

[10] = inhibitors of intracellular T. cruzi replication, confirmation, NIH3T3 host cells, beta-gal luminescence (AID 2044); assay type: functional, cell-based;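 note: intracellular parasites grown in NIH/3T3 mouse fibroblasts as host cells; luminescent beta-galactosidase reporter signal from transgenic T. cruzi replicating inside host cells; inhibitors lower the luminescence signal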
[11] = cytotoxicity toward NIH3T3 fibroblasts, dose response, counter-screen, cell-based, ATP luminescence, mouse fibroblasts (AID 2010); assay type: functional;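 note: cells exposed to compound for about 90 hours before reading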
[12] = tested on: Streptococcus sp. 'group A'; assay: growth inhibition of control SK(-) GAS strain, dose response, counter-screen for streptokinase expression inhibitor project, luminescence, kanamycin, BacTiterGlo, confirmation (AID 1900); assay type: functional, organism-based
[13] = target: T2, Streptokinase A (Streptococcus pyogenes serotype M1, UniProt P10520); assay: S. pyogenes streptokinase expression inhibitors, potency, dose response, plasminogen activation absorbance, OD405 (AID 1914); assay type: functional, Streptococcus pyogenes M1 GAS;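 note: secreted streptokinase activity via plasminogen activation per viability signal from cell pellet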
T2 sequence (P10520 whole entry): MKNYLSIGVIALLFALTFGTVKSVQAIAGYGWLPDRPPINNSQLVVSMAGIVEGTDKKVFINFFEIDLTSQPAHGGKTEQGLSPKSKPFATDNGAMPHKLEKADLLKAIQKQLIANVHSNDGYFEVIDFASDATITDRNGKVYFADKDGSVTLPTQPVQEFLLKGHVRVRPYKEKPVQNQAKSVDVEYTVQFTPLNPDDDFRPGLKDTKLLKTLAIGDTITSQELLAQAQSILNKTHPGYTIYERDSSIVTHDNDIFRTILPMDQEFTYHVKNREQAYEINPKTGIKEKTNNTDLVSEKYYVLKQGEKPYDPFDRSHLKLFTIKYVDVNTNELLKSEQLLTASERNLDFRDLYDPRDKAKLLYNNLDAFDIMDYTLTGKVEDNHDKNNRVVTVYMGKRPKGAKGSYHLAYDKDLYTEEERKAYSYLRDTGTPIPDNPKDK

[14] = tested on: Streptococcus; assay: Group A Streptococcus viability loss, dose response, counter-screen for streptokinase expression inhibitor project, luminescence, BacTiterGlo (AID 1915); assay type: functional, organism-based;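 note: potency for reduction of bacterial viability or growth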
[15] = target: T3, Corticotropin-releasing factor receptor 2/Corticotropin-releasing factor-binding protein (Homo sapiens, UniProt P24387+Q13324); assay: Dose Response confirmation of uHTS hits for small molecule antagonists of the CRF-binding protein and CRF-R2 receptor complex.; assay type: functional; conditions: read-out: IC50_Mean
T3 sequence (Q13324 whole entry): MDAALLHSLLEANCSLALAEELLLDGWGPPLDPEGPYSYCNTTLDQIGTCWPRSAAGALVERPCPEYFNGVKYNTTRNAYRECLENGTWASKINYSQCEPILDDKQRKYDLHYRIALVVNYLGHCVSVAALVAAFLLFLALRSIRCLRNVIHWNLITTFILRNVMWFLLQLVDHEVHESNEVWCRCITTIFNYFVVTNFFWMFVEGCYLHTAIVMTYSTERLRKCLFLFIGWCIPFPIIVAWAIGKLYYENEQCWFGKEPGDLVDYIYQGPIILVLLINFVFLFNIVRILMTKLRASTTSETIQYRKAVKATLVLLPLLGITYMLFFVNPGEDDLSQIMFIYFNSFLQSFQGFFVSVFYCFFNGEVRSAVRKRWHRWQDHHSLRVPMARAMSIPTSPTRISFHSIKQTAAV
T3 sequence (P24387 whole entry): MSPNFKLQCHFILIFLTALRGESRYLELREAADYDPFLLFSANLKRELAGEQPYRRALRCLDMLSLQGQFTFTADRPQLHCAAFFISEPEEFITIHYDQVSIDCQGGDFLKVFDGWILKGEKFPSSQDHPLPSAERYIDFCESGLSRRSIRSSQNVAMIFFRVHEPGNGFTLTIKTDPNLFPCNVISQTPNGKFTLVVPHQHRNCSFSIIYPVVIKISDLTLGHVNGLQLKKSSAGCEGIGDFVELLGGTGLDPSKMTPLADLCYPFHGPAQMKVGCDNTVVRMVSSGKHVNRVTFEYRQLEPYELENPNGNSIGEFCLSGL

[16] = target: T3, Corticotropin-releasing factor receptor 2/Corticotropin-releasing factor-binding protein; assay: activators of CRF receptor 2 with binding protein – uHTS hits, confirmation (AID 602473); assay type: functional; conditions: read-out: EC50_Mean

In the case of `CCn1c(N=NO)nc2ccccc21`, the EC50 [1] is reported as 21.9 µM (active), the EC50 [2] is reported as > 38 µM (not active) and the AC50 [3] is reported as 1.83 µM (active).
For `O=C(COC(=O)c1ccc(Br)o1)NCCCc1ccccc1`, the IC50 [4] was 38.5 µM (active).
With `CC1(c2ccccc2)CC(C)(C)N(C(=O)CSc2nnc(N)s2)c2ccccc21` (configuration not stated) the CC50 [5] was 22.9 µM (active).
With `CCOc1ccc2nc(O)c(O)nc2c1` the CC50 [5] was 45.8 µM (active).
In the case of `Cc1sc2ncnc(SCC(=O)Nc3ncccc3O)c2c1C`, the IC50 [6] is reported as 5.35 µM (active).
With `O=C(OCC(=O)N1CCCC1)c1cc(Br)ccc1Cl` the IC50 [4] was 22 µM (active).
In the case of `CCC1CCc2sc(C(=O)NNC(=O)c3ccncc3)cc2C1` (configuration not stated), the IC50 [4] is reported as 21.6 µM (active).
In the case of `COc1ccccc1-c1ccc2ncnc(NCc3cnc(C)cn3)c2c1`, the AC50 [7] is reported as 39.8 µM (inconclusive), the AC50 [8] is reported as 39.8 µM (inconclusive) and the AC50 [9] is reported as 10 µM (inconclusive).
With `CC(C)(C)C1CCC(OC(=O)C[N+]2(C)CCCCC2)CC1` (configuration not stated) the EC50 [1] was 18.1 µM (active) and the EC50 [2] was > 38 µM (not active).
With `COc1ccc(CN(C(=O)CSc2nnc(-c3ccccc3F)o2)c2ccc(F)cc2)cc1` the CC50 [5] was 23.1 µM (active).
With `CCN(CC)c1cccc(OC2=NS(=O)(=O)c3ccccc32)c1` the EC50 [1] was > 150 µM (inactive) and the EC50 [2] was 5.06 µM (active).
In the case of `CS(=O)(=O)N(CC(=O)Nc1c(F)cccc1F)c1ccc(C23CC4CC(CC(C4)C2)C3)cc1`, the EC50 [10] is reported as 2.25 µM (active), the EC50 [11] is reported as 10.6 µM (active) and the AC50 [8] is reported as 4.47 µM (inconclusive). For the same compound, the AC50 [9] was 15.8 µM (inconclusive).
For `O=C(NCc1cccnc1)c1ccc(-c2cccc(Cl)c2Cl)o1`, the EC50 [1] was > 38 µM (inactive), the EC50 [2] was > 38 µM (not active) and the EC50 [10] was 0.92 µM (active). The EC50 [11] was > 60 µM (not active).
In the case of `COc1ccccc1N1CCN(Cc2nc(N)nc(Nc3ccc(C)c(Cl)c3)n2)CC1`, the CC50 [5] is reported as 19.6 µM (active), the EC50 [12] is reported as 10.7 µM (active) and the EC50 [13] is reported as > 150 µM (inconclusive). The EC50 [14] was 20.4 µM (active).
In the case of `Cc1cccc(NC(=O)CN2C(=O)S/C(=C\c3ccc(-c4cccc(C(=O)O)c4C)o3)C2=O)c1`, the IC50 [6] is reported as 3.95 µM (active).
With `CCCCC(=O)OCc1cn(-c2ccc(Cl)cc2)nn1` the AC50 [7] was 2.24 µM (inconclusive), the AC50 [8] was 25.1 µM (inconclusive) and the AC50 [9] was 39.8 µM (inconclusive).
In the case of `Cc1cc(Cl)ccc1NNC(=O)c1snnc1C`, the EC50 [1] is reported as 16.8 µM (inconclusive) and the EC50 [2] is reported as 1.59 µM (active).
With `N=c1ccn(Cc2ccc(Cl)cc2Cl)cc1` the AC50 [3] was 7.25 µM (active).
For `Cc1ccc(S(=O)(=O)NNC(=O)c2ccc(NC(=O)C3CC3)cc2)cc1`, the EC50 [1] was > 150 µM (inactive) and the EC50 [2] was 12.7 µM (active).
With `CSc1nc2ccc(NC(=O)C3CC(=O)N(Cc4ccccc4)C3)cc2s1` (configuration not stated) the IC50 [4] was 11.4 µM (active).
With `Cc1ccc(-c2c(NCCc3ccccc3)c(=O)c2=O)cc1` the IC50 [6] was 9.66 µM (active).
With `O=C(CCS(=O)(=O)c1ccc(Br)cc1)NCCc1ccccc1` the IC50 [6] was 26.3 µM (active).
For `COc1ccc(OC)c(C(c2nnnn2C2CCCC2)N2CCc3ccccc3C2)c1` (configuration not stated), the CC50 [5] was 24 µM (active).
With `NC(=O)C1=C[C@@H](c2csc3ccccc23)C[C@@H](OCc2ccc(CO)cc2)O1` the CC50 [5] was 15.5 µM (active).
With `Cc1cccc(N2C(N)=NC(N)=NC23CCCCC3)c1` the IC50 [15] was > 47.1 µM (inactive) and the EC50 [16] was > 53 µM (inactive).
In the case of `Cc1ccc(/C=C/c2onc(C)c2S(=O)(=O)N2CCC(C(=O)N3CCCCC3)CC2)cc1`, the CC50 [5] is reported as > 50 µM (active).
In the case of `O=C(CN1CCN(S(=O)(=O)c2ccccc2)CC1)Nc1ccc2c(c1)CCC2`, the EC50 [1] is reported as > 150 µM (inactive) and the EC50 [2] is reported as > 38 µM (not active).
With `CCOc1cc(S(=O)(=O)NCc2ccccc2)c(OCC)cc1-n1cnnn1` the EC50 [1] was > 150 µM (inconclusive) and the EC50 [2] was 3.34 µM (active).
In the case of `Cc1cc(C)cc(NC(=O)Cn2nnc(C(=O)NCc3ccc(F)cc3)c2N)c1`, the IC50 [15] is reported as > 47.1 µM (inactive) and the EC50 [16] is reported as > 53 µM (inactive).
With `Cc1oncc1-c1csc(-c2ccccc2)n1` the CC50 [5] was 36.5 µM (active).
With `CCCNC(=O)C1CC(=O)N(c2ccc(OCC)cc2)C1` (configuration not stated) the IC50 [15] was > 47.1 µM (inactive) and the EC50 [16] was > 53 µM (inactive).
With `CCO[C@@H]1OC(C(N)=O)=C[C@H](C(C)(C)C)[C@H]1CCCO` the IC50 [15] was > 47.1 µM (inactive) and the EC50 [16] was > 53 µM (inactive).
For `COc1cc(C(=O)O)c2ccccc2n1`, the IC50 [15] was < 0.368 µM (active) and the EC50 [16] was > 53 µM (inactive).
In the case of `CC[C@]12c3[nH]c4ccc(OC)cc4c3CCN1C(=O)C(CC(=O)NCCCOC)C[C@@H]2C(=O)N1CCN(C(=O)c2ccco2)CC1` (some centres not stated), the IC50 [15] is reported as > 47.1 µM (inactive) and the EC50 [16] is reported as > 53 µM (inactive).
With `O=C(N/N=C/C=C/c1ccco1)c1ccncc1` the IC50 [4] was 1.31 µM (active).
